Assay results from patent US8298781B2, “Compositions and methods for characterizing and regulating olfactory sensation” (Duke University, priority 2007, dated 2012).

Assays:
human subjects [1] = assay: Human olfactory psychophysics: intensity rating by OR7D4 genotype; type: in vivo; conditions: for intensity rating, OR7D4 RT/WM vs RT/RT subjects: 7-point scale, two concentrations pooled, N=100 RT/WM, N=255 RT/RT; for intensity rating, RT/S84N subjects vs RT/RT controls: N=7 RT/S84N; for reduction in odor intensity, OR7D4 WM/WM subjects: N=10 WM/WM, compared with RT/WM; for intensity rating, RT/P79L subjects vs RT/RT controls: N=30 RT/P79L
Experimental: Human olfactory psychophysics. All human subjects gave informed consent to participate in this study and were tested in a well-ventilated room. Normal human subjects (n=412; 218 female, 194 male; median age 34, age range 19-75) were pre-screened to exclude pregnant women and those with medical conditions causing general impairment of the sense of smell. All subjects completed two replicates of the test separated by at least 4 days. Odors were presented in amber vials as previously described (see, e.g., Keller, A., et al., Nat Neurosci 7, 337-338 (2004); herein incorporated by reference in its entirety) using bar-coded symbols to ensure that subjects were blind to the identity of all odors. The intensity and valence of 66 odors at two concentrations (“high” and “low”) and two solvents was rated using a 7-point scale. Thresholds were calculated using the single staircase method with seven reversals (see, e.g., Doty, R. L., et al., Chem Senses 20, 645-656 (1995); Doty, R. L. & Laing, D. G. in Handbook of Olfaction and Gustation (ed. Doty, R. L.) pp. 203-228 (Marcel Dekker, Inc., New York, 2003); each of which are herein incorporated by reference in their entireties). Threshold tests included both steroids as binary dilutions from […] (binary dilution 6) to 1: 134,217,728 (binary dilution 27). Subjects who could not reliably distinguish a 1:64 dilution of androstenone and androstadienone from solvent were operationally defined as anosmic to these odorous steroids, although it could not be excluded that these subjects could detect higher concentrations of these steroids (see, e.g., Bremner, E. A., et al., Chem Senses 28, 423-432 (2003); herein incorporated by reference in its entirety). Odor profiling used the method established by Dravnieks, et al. (see, e.g., Dravnieks, A., et al., Science 218, 799-801 (1982); herein incorporated by reference in its entirety).
Stimuli for olfactory psychophysics. All odors were presented as one ml of an odor dilution in either propylene glycol or paraffin oil in 20 ml amber glass vials. All of these compounds were used in the intensity and valence rating portion of the smell test.
Olfactory ratings. The intensity and valence of 66 odors were rated at two different concentrations (high and low) and the intensity and valence of the two solvents (paraffin oil and propylene glycol) was rated three times. Prior to these ratings, six stimuli that represented the spectrum of intensity and valence of the stimuli used in the study were presented to allow the subjects to calibrate the usage of the scale. The subjects were unaware that the six first stimuli served that purpose. After the rating of the 66 odors at two concentrations and the rating of the solvents, 15 stimuli that were presented earlier in the experiment were repeated to test for the effect of adaptation and olfactory fatigue on the ratings. The subjects were not aware that the last 15 stimuli served this purpose. These 15 stimuli and the six first stimuli were not included in the analysis presented here. […] The 15 control stimuli and their concentrations were as follows:
In addition there was a button on the screen labeled “I can't smell anything” and a button labeled “Don't Know”. If the “Don't Know” button was pressed, no rating was recorded. If the “I can't smell anything” button was pressed, a 0 was recorded for the intensity rating and no rating was recorded for the valence rating. The other ratings were transformed according to the following scheme:
• Extremely Weak=1 • Very Weak=2 • Slightly Weak=3 • Neither Weak nor Strong=4 • Slightly Strong=5 • Very Strong=6 • Extremely Strong=7 Valence Rating • Extremely Unpleasant=1 • Very Unpleasant=2 • Slightly Unpleasant=3 • Neither Unpleasant nor Pleasant=4 • Slightly Pleasant=5 • Very Pleasant=6 • Extremely Pleasant=7
Averages for the ratings of the different genotypes were calculated. […]

cortisol levels = conditions: Wyart et al. 2007; cited from earlier work
humans = conditions: literature; cited from earlier work
human subjects [2] = assay: Human olfactory psychophysics: odor profiling with 146 descriptors; type: in vivo; conditions: androstenone 1/10,000
Experimental: Human olfactory psychophysics. All human subjects gave informed consent to participate in this study and were tested in a well-ventilated room. Normal human subjects (n=412; 218 female, 194 male; median age 34, age range 19-75) were pre-screened to exclude pregnant women and those with medical conditions causing general impairment of the sense of smell. All subjects completed two replicates of the test separated by at least 4 days. Odors were presented in amber vials as previously described (see, e.g., Keller, A., et al., Nat Neurosci 7, 337-338 (2004); herein incorporated by reference in its entirety) using bar-coded symbols to ensure that subjects were blind to the identity of all odors. The intensity and valence of 66 odors at two concentrations (“high” and “low”) and two solvents was rated using a 7-point scale. Thresholds were calculated using the single staircase method with seven reversals (see, e.g., Doty, R. L., et al., Chem Senses 20, 645-656 (1995); Doty, R. L. & Laing, D. G. in Handbook of Olfaction and Gustation (ed. Doty, R. L.) pp. 203-228 (Marcel Dekker, Inc., New York, 2003); each of which are herein incorporated by reference in their entireties). Threshold tests included both steroids as binary dilutions from […] (binary dilution 6) to 1: 134,217,728 (binary dilution 27). […]
Assigning descriptors to odors. Subjects assessed the quality of six odors using an odor profiling method that has shown to produce stable profiles of odorants. […] Odor profiling typically took five minutes per odorant and was performed as a computer-controlled selftest in which the subject's responses were directly recorded. […] The descriptors used to describe the other four odors (vanillin, pentadecalactone, androstenone, and propylene glycol) were evaluated. […]

Structure (SMILES): C[C@@]12C=CC[C@H]1[C@@H]1CCC3=CC(=O)CC[C@]3(C)[C@H]1CC2 [androstadienone, androsta-4,16-dien-3-one]
- intensity rating, OR7D4 RT/WM vs RT/RT subjects (human subjects [1]): less intense
- intensity rating, RT/S84N subjects vs RT/RT controls (human subjects [1]): more intense
- reduction in odor intensity, OR7D4 WM/WM subjects (human subjects [1]): more marked
- intensity rating, RT/P79L subjects vs RT/RT controls (human subjects [1]): less intense
- cortisol levels in women smelling the odor vs women not smelling it (cortisol levels): maintained at higher levels

Structure (SMILES): C[C@]12CCC(=O)C[C@@H]1CC[C@@H]1[C@@H]2CC[C@]2(C)C=CC[C@@H]12 [androstenone, 5α-androst-16-en-3-one]
- intensity rating, OR7D4 RT/WM vs RT/RT subjects (human subjects [1]): less intense
- intensity rating, RT/S84N subjects vs RT/RT controls (human subjects [1]): more intense
- reduction in odor intensity, OR7D4 WM/WM subjects (human subjects [1]): more marked
- intensity rating, RT/P79L subjects vs RT/RT controls (human subjects [1]): less intense
- humans fitting the criteria of specific anosmia (humans): 6%
- humans with reduced sensitivity (humans): Up to 30%
- use of descriptor "sickening", OR7D4 RT/WM vs RT/RT subjects (human subjects [2]): less likely
- use of descriptor "vanilla", OR7D4 RT/WM vs RT/RT subjects (human subjects [2]): more likely
